Results: the kinase profiling compilation of Christmann-Franck et al. (2016)

Experiments:
Assay in all cases: KINOMEscan competition binding
Conditions in all cases: compound 10.0 µM; call rule not given here
[1] = biological target: TGFBR1 (human) (UniProt P36897)
[2] = biological target: CDC42BPA (human) (UniProt Q5VT25)
[3] = biological target: INSRR (human) (UniProt P14616)
[4] = biological target: GSK3A (human) (UniProt P49840)
[5] = biological target: STK10 (human) (UniProt O94804)
[6] = biological target: NEK2 (human) (UniProt P51955)
[7] = biological target: ULK3 (human) (UniProt Q6PHR2)
Chain of ULK3 (human) (Q6PHR2 whole entry, looked up): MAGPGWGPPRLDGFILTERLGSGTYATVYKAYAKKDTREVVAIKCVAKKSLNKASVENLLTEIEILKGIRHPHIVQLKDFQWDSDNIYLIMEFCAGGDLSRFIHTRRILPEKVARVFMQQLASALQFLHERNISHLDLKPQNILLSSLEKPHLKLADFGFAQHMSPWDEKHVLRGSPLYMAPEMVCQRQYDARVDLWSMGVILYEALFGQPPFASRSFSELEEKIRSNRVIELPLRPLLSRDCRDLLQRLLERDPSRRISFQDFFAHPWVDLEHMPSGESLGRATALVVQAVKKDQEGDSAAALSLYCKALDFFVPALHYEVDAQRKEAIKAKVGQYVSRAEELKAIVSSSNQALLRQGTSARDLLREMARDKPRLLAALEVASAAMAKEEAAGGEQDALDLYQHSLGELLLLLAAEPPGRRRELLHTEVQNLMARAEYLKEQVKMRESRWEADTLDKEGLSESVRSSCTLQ

[8] = biological target: CAMK2A (human) (UniProt Q9UQM7)
[9] = biological target: PAK1 (human) (UniProt Q13153)
[10] = biological target: STK4 (human) (UniProt Q13043)
[11] = biological target: BLK (human) (UniProt P51451)
[12] = biological target: FGFR3 (human) (UniProt P22607)
[13] = biological target: MAP3K11 (human) (UniProt Q16584)
[14] = biological target: STK38L (human) (UniProt Q9Y2H1)
[15] = biological target: STK17A (human) (UniProt Q9UEE5)
Chain of STK17A (human) (Q9UEE5 whole entry, looked up): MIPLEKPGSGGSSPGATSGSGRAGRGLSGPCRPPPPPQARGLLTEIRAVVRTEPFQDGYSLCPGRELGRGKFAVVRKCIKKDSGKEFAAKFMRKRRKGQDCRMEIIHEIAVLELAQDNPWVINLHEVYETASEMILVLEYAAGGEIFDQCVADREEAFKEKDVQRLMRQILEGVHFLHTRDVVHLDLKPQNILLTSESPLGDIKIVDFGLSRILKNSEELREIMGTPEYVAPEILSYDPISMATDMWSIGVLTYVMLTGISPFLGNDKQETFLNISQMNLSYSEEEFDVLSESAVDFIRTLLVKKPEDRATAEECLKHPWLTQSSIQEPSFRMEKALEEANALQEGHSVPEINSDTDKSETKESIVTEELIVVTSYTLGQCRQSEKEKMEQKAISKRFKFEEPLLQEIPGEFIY

[16] = biological target: EGFR (human) (UniProt P00533)
[17] = biological target: NTRK3 (human) (UniProt Q16288)
Chain of NTRK3 (human) (Q16288 whole entry, looked up): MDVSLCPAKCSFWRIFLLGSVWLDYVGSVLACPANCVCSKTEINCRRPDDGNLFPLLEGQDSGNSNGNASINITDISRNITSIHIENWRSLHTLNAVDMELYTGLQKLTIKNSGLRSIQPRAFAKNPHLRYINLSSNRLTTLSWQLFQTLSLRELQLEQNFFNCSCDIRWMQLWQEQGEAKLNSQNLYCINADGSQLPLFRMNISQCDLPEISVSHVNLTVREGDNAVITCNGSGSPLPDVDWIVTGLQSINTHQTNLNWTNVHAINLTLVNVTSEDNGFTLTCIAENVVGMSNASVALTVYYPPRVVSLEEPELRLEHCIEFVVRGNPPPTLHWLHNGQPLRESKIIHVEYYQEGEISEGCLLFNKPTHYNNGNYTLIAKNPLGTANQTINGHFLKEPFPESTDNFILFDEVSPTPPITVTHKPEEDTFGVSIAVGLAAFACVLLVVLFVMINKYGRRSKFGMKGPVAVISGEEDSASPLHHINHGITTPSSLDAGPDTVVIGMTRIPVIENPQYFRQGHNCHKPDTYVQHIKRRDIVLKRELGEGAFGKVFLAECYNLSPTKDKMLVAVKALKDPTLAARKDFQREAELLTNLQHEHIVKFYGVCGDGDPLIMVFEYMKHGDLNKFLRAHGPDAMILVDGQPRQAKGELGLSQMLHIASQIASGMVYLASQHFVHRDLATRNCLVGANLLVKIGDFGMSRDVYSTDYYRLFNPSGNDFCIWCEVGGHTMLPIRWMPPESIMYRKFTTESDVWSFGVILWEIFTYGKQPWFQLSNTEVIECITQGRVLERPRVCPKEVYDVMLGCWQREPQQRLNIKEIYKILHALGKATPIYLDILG

[18] = biological target: SIK2 (human) (UniProt Q9H0K1)
[19] = biological target: PRKAA1 (human) (UniProt Q13131)
[20] = biological target: FGFR2 (human) (UniProt P21802)
[21] = biological target: CAMK2D (human) (UniProt Q13557)
[22] = biological target: FLT4 (human) (UniProt P35916)
[23] = biological target: MAPK12 (human) (UniProt P53778)
Chain of MAPK12 (human) (P53778 whole entry, looked up): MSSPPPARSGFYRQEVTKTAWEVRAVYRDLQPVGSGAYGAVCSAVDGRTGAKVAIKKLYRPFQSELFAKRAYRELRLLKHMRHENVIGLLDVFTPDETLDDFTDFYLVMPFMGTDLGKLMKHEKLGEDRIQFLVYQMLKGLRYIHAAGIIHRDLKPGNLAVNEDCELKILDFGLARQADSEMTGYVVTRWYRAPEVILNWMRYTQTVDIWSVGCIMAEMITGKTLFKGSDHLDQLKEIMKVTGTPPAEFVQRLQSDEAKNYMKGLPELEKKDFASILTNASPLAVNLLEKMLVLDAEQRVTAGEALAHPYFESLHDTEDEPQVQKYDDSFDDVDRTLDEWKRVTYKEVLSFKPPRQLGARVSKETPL

[24] = biological target: PLK4 (human) (UniProt O00444)
Chain of PLK4 (human) (O00444 whole entry, looked up): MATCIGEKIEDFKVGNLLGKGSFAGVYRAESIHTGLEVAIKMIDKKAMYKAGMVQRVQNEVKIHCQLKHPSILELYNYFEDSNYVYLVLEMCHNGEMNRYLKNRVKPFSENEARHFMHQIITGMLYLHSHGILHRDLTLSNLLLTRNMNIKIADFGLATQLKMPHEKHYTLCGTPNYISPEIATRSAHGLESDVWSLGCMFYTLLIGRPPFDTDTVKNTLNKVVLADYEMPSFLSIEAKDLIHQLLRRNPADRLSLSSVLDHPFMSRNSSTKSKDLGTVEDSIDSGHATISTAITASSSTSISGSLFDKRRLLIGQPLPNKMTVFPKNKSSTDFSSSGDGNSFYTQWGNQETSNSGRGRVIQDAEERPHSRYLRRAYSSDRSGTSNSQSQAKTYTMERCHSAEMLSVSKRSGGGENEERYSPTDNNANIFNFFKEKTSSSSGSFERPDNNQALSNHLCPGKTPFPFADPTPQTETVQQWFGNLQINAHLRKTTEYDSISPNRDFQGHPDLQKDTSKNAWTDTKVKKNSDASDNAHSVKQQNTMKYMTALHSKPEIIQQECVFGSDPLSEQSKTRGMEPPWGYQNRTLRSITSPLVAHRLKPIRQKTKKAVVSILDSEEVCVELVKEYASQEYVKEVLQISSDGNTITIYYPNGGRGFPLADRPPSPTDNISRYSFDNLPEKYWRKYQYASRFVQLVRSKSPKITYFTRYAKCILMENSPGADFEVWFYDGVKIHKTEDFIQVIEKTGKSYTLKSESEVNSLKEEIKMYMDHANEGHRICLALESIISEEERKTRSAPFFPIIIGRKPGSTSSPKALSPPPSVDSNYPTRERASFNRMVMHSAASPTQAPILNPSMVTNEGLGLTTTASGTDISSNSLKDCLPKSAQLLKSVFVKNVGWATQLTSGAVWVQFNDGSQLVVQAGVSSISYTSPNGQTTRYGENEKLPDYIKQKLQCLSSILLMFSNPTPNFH

[25] = biological target: ACVR2A (human) (UniProt P27037)
[26] = biological target: BTK (human) (UniProt Q06187)
[27] = biological target: CSNK1G2 (human) (UniProt P78368)
[28] = biological target: PKMYT1 (human) (UniProt Q99640)
[29] = biological target: MARK2 (human) (UniProt Q7KZI7)
Chain of MARK2 (human) (Q7KZI7 whole entry, looked up): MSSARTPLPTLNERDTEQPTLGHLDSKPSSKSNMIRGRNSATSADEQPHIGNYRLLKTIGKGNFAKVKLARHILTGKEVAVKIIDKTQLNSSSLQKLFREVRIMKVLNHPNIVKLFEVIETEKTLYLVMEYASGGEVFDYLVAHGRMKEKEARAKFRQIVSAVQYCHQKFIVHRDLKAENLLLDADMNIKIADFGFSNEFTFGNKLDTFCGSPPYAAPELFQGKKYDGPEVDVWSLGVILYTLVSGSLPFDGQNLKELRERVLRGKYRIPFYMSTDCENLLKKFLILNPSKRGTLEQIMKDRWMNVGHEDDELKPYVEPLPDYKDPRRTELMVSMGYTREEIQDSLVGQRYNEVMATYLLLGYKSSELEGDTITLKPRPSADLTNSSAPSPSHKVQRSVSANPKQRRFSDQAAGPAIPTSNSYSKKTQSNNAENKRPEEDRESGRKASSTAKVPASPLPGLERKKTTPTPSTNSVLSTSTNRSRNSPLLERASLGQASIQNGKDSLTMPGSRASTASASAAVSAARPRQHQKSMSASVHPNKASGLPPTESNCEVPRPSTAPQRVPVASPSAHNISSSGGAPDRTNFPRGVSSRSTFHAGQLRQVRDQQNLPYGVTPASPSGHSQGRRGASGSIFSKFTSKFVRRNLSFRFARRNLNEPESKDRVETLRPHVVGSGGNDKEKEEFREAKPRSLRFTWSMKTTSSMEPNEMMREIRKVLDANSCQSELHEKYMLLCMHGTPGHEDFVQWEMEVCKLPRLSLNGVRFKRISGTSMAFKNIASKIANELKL

[30] = biological target: PAK2 (human) (UniProt Q13177)
[31] = biological target: ABL1 (human) (UniProt P00519)
[32] = biological target: BMP2K (human) (UniProt Q9NSY1)
[33] = biological target: AURKC (human) (UniProt Q9UQB9)
[34] = biological target: ABL2 (human) (UniProt P42684)
Chain of ABL2 (human) (P42684 whole entry, looked up): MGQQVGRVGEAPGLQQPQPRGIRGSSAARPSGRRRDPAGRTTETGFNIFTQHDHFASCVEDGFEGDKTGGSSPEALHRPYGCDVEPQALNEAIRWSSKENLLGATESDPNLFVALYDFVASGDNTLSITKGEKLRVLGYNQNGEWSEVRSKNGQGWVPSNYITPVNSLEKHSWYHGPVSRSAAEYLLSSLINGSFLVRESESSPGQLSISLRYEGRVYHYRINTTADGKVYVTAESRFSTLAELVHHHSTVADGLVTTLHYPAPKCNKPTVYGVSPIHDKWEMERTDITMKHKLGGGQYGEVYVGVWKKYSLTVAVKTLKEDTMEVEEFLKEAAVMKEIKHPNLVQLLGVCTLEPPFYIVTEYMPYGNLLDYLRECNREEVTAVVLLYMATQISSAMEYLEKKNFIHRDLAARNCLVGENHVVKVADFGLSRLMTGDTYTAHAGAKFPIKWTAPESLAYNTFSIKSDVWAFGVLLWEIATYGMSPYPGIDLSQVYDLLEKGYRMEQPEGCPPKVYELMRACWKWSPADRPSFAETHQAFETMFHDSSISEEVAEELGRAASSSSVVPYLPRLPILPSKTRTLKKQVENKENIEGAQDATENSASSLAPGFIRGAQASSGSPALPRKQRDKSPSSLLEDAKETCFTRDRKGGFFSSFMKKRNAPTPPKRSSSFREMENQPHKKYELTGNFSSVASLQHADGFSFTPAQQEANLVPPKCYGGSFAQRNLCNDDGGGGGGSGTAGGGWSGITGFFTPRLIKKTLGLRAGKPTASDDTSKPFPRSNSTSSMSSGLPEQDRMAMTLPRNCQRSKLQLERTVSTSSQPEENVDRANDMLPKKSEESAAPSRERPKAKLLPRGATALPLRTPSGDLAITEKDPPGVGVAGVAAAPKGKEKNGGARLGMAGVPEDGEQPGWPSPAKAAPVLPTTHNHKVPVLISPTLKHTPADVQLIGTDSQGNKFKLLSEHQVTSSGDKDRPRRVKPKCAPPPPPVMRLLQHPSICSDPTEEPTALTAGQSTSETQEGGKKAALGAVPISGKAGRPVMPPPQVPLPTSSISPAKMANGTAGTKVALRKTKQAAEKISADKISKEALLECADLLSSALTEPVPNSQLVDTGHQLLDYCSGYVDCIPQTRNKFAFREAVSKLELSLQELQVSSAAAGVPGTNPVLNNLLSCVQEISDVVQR

[35] = biological target: CAMK1D (human) (UniProt Q8IU85)
[36] = biological target: FGFR1 (human) (UniProt P11362)
[37] = biological target: FLT1 (human) (UniProt P17948)
[38] = biological target: FER (human) (UniProt P16591)
[39] = biological target: STK11 (human) (UniProt Q15831)
[40] = biological target: ACVR1 (human) (UniProt Q04771)

kinase still bound, per cent of control [1]: 0%
kinase still bound, per cent of control [2]: no effect (inactive)
kinase still bound, per cent of control [3]: 0%
kinase still bound, per cent of control [4]: 0.85%
kinase still bound, per cent of control [5]: 0%
kinase still bound, per cent of control [6]: 0%
kinase still bound, per cent of control [7]: 0%
kinase still bound, per cent of control [8]: 0.5%
kinase still bound, per cent of control [9]: 4.9%
kinase still bound, per cent of control [10]: 0%
kinase still bound, per cent of control [11]: 0%
kinase still bound, per cent of control [12]: 0%
kinase still bound, per cent of control [13]: 12.3%
kinase still bound, per cent of control [14]: 0%
kinase still bound, per cent of control [15]: 0%
kinase still bound, per cent of control [16]: 21.2%
kinase still bound, per cent of control [17]: 0%
kinase still bound, per cent of control [18]: 0.8%
kinase still bound, per cent of control [19]: 0%
kinase still bound, per cent of control [20]: 0.1%
kinase still bound, per cent of control [21]: 2%
kinase still bound, per cent of control [22]: 0.1%
kinase still bound, per cent of control [23]: no effect (inactive)
kinase still bound, per cent of control [24]: 0%
kinase still bound, per cent of control [25]: 22.7%
kinase still bound, per cent of control [26]: 0%
kinase still bound, per cent of control [27]: no effect (inactive)
kinase still bound, per cent of control [28]: no effect (inactive)
kinase still bound, per cent of control [29]: 0.3%
kinase still bound, per cent of control [30]: no effect (inactive)
kinase still bound, per cent of control [31]: 0.6%
kinase still bound, per cent of control [32]: 0%
kinase still bound, per cent of control [33]: 0.5%
kinase still bound, per cent of control [34]: 4.8%
kinase still bound, per cent of control [35]: 0.7%
kinase still bound, per cent of control [36]: 0%
kinase still bound, per cent of control [37]: 0.1%
kinase still bound, per cent of control [38]: 0%
kinase still bound, per cent of control [39]: 1%
kinase still bound, per cent of control [40]: 0.1%
SMILES: CCS(=O)(=O)Nc1ccc2c(c1)[C@H](/C(=N/c1ccc(CN3CCCCC3)cc1)c1ccccc1)C(=O)N2
